Assay results: patent US20240190847A1, “INDOLINE DERIVATIVES AS DDR1 AND DDR2 INHIBITORS” (CHIESI FARMACEUTICI S.P.A., priority 2021, published 2024)
pIC50, pKi: −log10 of the molar value. Where two headings read alike, the source gives them in different places.

What was measured:
DDR1 = DDR1 LanthaScreen Europium Kinase Binding assay
Procedure: (§1) DDR1 and DDR2 binding assays were performed using Life Technologies LanthaScreen™ Europium Kinase Binding assay. The compounds were incubated with 5 nM DDR1 (Carna Biosciences) or 5 nM DDR2 (Life Technologies) for 1 hour at room temperature in white 384-well OptiPlate (PerkinElmer), containing 20 nM or 10 nM Kinase Tracer 178 respectively and 2 nM Europium labelled anti-GST antibody (Life Technologies) in assay buffer (50 mM HEPES pH 7.5, 10 mM MgCl2, 1 mM EGTA and 0.01% BRIJ35). The ratio of fluorescence emission 665 nm/615 nm after excitation at 340 nm was obtained using the Tecan Spark 20M plate reader. IC50 values were determined in GraphPad Prism 8.0 software, using 4 parameter model: log(inhibitor) vs. response. IC50 values were converted in Ki using the Cheng-Prusoff equation (Ki=IC50/(1+[Tracer]/Kd).

DDR2 = DDR2 LanthaScreen Europium Kinase Binding assay
Procedure: as §1

DDR1 receptor = test: DDR1 cell based assay (PathHunter U2OS DDR1); conditions: U2OS-DDR1 cells, bovine Type II Collagen 20 μg/ml stimulation
Procedure: The inhibition of DDR1 receptor activation by compounds was evaluated by PathHunter® U2OS DDR1 assay (Eurofins DiscoverX), according to the manufacturer's instructions. Briefly, U2O5-DDR1 cells were seeded in white 384-well plates at a density of 5000 cells/well and incubated for 2 hours at 37° C. and 5% CO2. Cells were then treated with compounds at different concentrations and incubated for 30 minutes, before stimulation with bovine Type II Collagen 20 μg/ml and incubation overnight at 37° C. and 5% CO2. PathHunter Detection Reagents were prepared according to the protocol provided by DiscoverX and 20 μl/well of this mix were added to each well. After incubating the plates for 1 hour at room temperature in the dark, luminescence signal was acquired with a plate reader. Raw data were normalized to vehicle control (0% for normalization) and positive control (100% for normalization; cells treated with 20 μg/ml collagen II) and IC50 parameters were calculated in GraphPad Prism 8.0 software, using sigmoidal dose-response curve fitting with variable slope.

[1] = 5 nM DDR1, 1 hour at room temperature, Ki from IC50 by Cheng-Prusoff, read-out: Ki DDR1
[2] = 5 nM DDR2, 1 hour at room temperature, Ki from IC50 by Cheng-Prusoff, read-out: Ki DDR2

SMILES	pKi (DDR1; [1])	pKi (DDR2; [2])	pIC50 (DDR1 receptor)	pKi (DDR1; read-out: DDR1 Ki)	pKi (DDR2; read-out: DDR2 Ki)
Cc1cn(-c2cc(NC(=O)c3ccc4c(c3)N(Cc3cncnc3)CC4)cc(C(F)(F)F)c2)cn1 [Example 1, N-(3-(4-methyl-1H-imidazol-1-yl)-5-(trifluoromethyl)phenyl)-1-(pyrimidin-5-ylmethyl)indoline-6-carboxamide]	> 7.60	> 7.60	7.10 to 7.30	–	–
CNC(=O)c1cc(CN2CCc3ccc(C(=O)Nc4cc(-n5cnc(C)c5)cc(C(F)(F)F)c4)cc32)ccn1 [Example 2, N-(3-(4-methyl-1H-imidazol-1-yl)-5-(trifluoromethyl)phenyl)-1-((2-(methylcarbamoyl)pyridin-4-yl)methyl)indoline-6-carboxamide]	> 7.60	> 7.60	7.30 to 7.60	–	–
CN1CCN(Cc2cc(NC(=O)c3ccc4c(c3)N(Cc3cncnc3)CC4)cc(C(F)(F)F)c2)CC1 [Example 3, N-(3-((4-methylpiperazin-1-yl)methyl)-5-(trifluoromethyl)phenyl)-1-(pyrimidin-5-ylmethyl)indoline-6-carboxamide]	> 7.60	> 7.60	7.10 to 7.30	–	–
CNC(=O)c1cc(CN2CCc3ccc(NC(=O)c4cc(-n5cnc(C)c5)cc(C(F)(F)F)c4)cc32)ccn1 [Example 6, N-methyl-4-((6-(3-(4-methyl-1H-imidazol-1-yl)-5-(trifluoromethyl)benzamido)indolin-1-yl)methyl)picolinamide]	> 7.60	> 7.60	7.30 to 7.60	–	–
CN1CCN(c2cncc(CN3CCc4ccc(C(=O)Nc5cccc(C(F)(F)F)c5)cc43)c2)CC1=O [Example 7, 1-((5-(4-methyl-3-oxopiperazin-1-yl)pyridin-3-yl)methyl)-N-(3-(trifluoromethyl)phenyl)indoline-6-carboxamide]	> 7.60	> 7.60	> 7.60	–	–
CN1CCN(Cc2ccc(NC(=O)c3ccc4c(c3)N(Cc3cnc(N)nc3)CC4)cc2C(F)(F)F)CC1 [Example 8, 1-((2-aminopyrimidin-5-yl)methyl)-N-(4-((4-methylpiperazin-1-yl)methyl)-3-(trifluoromethyl)phenyl)indoline-6-carboxamide]	> 7.60	7.30 to 7.60	> 7.60	–	–
CN1CCN(Cc2ccc(NC(=O)c3ccc4c(c3)N(Cc3ccc(N)nc3)CC4)cc2C(F)(F)F)CC1 [Example 9, 1-((6-aminopyridin-3-yl)methyl)-N-(4-((4-methylpiperazin-1-yl)methyl)-3-(trifluoromethyl)phenyl)indoline-6-carboxamide]	> 7.60	7.30 to 7.60	> 7.60	–	–
CN1CCN(Cc2ccc(NC(=O)c3ccc4c(c3)N(Cc3cncnc3N)CC4)cc2C(F)(F)F)CC1 [Example 10, 1-((4-aminopyrimidin-5-yl)methyl)-N-(4-((4-methylpiperazin-1-yl)methyl)-3-(trifluoromethyl)phenyl)indoline-6-carboxamide]	> 7.60	> 7.60	> 7.60	–	–
CN1CCN(Cc2ccc(NC(=O)c3ccc4c(c3)N(Cc3cnc(N)cn3)CC4)cc2C(F)(F)F)CC1 [Example 11, 1-((5-aminopyrazin-2-yl)methyl)-N-(4-((4-methylpiperazin-1-yl)methyl)-3-(trifluoromethyl)phenyl)indoline-6-carboxamide]	> 7.60	> 7.60	> 7.60	–	–
CNc1ncc(CN2CCc3ccc(C(=O)Nc4ccc(CN5CCN(C)CC5)c(C(F)(F)F)c4)cc32)cn1 [Example 12, 1-((2-(methylamino)pyrimidin-5-yl)methyl)-N-(4-((4-methylpiperazin-1-yl)methyl)-3-(trifluoromethyl)phenyl)indoline-6-carboxamide]	> 7.60	7.30 to 7.60	> 7.60	–	–
CC(=O)Nc1ncc(CN2CCc3ccc(C(=O)Nc4ccc(CN5CCN(C)CC5)c(C(F)(F)F)c4)cc32)cn1 [Example 15, 1-((2-acetamidopyrimidin-5-yl)methyl)-N-(4-((4-methylpiperazin-1-yl)methyl)-3-(trifluoromethyl)phenyl)indoline-6-carboxamide]	> 7.60	–	> 7.60	–	–
CN1CCN(Cc2ccc(NC(=O)c3ccc4c(c3)N(Cc3cncc(C(N)=O)c3)CC4)cc2C(F)(F)F)CC1 [Example 17, 1-((5-carbamoylpyridin-3-yl)methyl)-N-(4-((4-methylpiperazin-1-yl)methyl)-3-(trifluoromethyl)phenyl)indoline-6-carboxamide]	> 7.60	> 7.60	7.30 to 7.60	–	–
COCCn1cc(Nc2ncc(CN3CCc4ccc(C(=O)Nc5cc(CN6CCN(C)CC6)cc(C(F)(F)F)c5)cc43)cn2)cn1 [Example 19, 1-((2-((1-(2-methoxyethyl)-1H-pyrazol-4-yl)amino)pyrimidin-5-yl)methyl)-N-(3-((4-methylpiperazin-1-yl)methyl)-5-(trifluoromethyl)phenyl)indoline-6-carboxamide]	> 7.60	> 7.60	> 7.60	–	–
CN(C)CCn1cc(Nc2ncc(CN3CCc4ccc(C(=O)Nc5cc(CN6CCN(C)CC6)cc(C(F)(F)F)c5)cc43)cn2)cn1 [Example 20, 1-((2-((1-(2-(dimethylamino)ethyl)-1H-pyrazol-4-yl)amino)pyrimidin-5-yl)methyl)-N-(3-((4-methylpiperazin-1-yl)methyl)-5-(trifluoromethyl)phenyl)indoline-6-carboxamide]	> 7.60	> 7.60	7.10 to 7.30	–	–
CN1CCN(Cc2cc(C(=O)Nc3ccc4c(c3)N(Cc3cnc(N)nc3)CC4)cc(C(F)(F)F)c2)CC1 [Example 21, N-(1-((2-aminopyrimidin-5-yl)methyl)indolin-6-yl)-3-((4-methylpiperazin-1-yl)methyl)-5-(trifluoromethyl)benzamide]	> 7.60	> 7.60	7.10 to 7.30	–	–
CN1CCN(Cc2cc(NC(=O)c3ccc4c(c3)N(c3cncnc3)CC4)cc(C(F)(F)F)c2)CC1 [Example C1, N-(3-((4-methylpiperazin-1-yl)methyl)-5-(trifluoromethyl)phenyl)-1-(pyrimidin-5-yl)indoline-6-carboxamide, reference compound]	–	–	–	4.52	4.30
Cc1cn(-c2cc(NC(=O)c3ccc4c(c3)N(c3cncnc3)CC4)cc(C(F)(F)F)c2)cn1 [Example C2, N-(3-(4-methyl-1H-imidazol-1-yl)-5-(trifluoromethyl)phenyl)-1-(pyrimidin-5-yl)indoline-6-carboxamide, reference compound]	–	–	–	4.24	5.40
CN1CCN(Cc2cc(C(=O)Nc3ccc4c(c3)N(c3cncnc3)CC4)cc(C(F)(F)F)c2)CC1 [Example C3, 3-((4-methylpiperazin-1-yl)methyl)-N-(1-(pyrimidin-5-yl)indolin-6-yl)-5-(trifluoromethyl)benzamide, reference compound]	–	–	–	4.24	4.24
